Consider 36 compounds from US20230373939A1 (VERTEX PHARMACEUTICALS INCORPORATED, priority 2020, published 2023).

For this experiment, the target named is T1, F508del in NIH 3T3 cells (Homo sapiens, UniProt P13569, DEL508-508).
T1 construct: expressed in transfected cells
The experiment is described as follows: 3T3 assay: membrane potential optical assay for F508del correction. It counts as cell-based. Conditions: for EC50: read-out: 3T3 EC50. From the text:
1. Membrane Potential Optical Methods for Assaying F508del Modulation Properties of Compounds
The assay utilizes fluorescent voltage sensing dyes to measure changes in membrane potential using a fluorescent plate reader (e.g., FLTPR III, Molecular Devices, Inc.) as a readout for increase in functional F508del in NIH 3T3 cells. The driving force for the response is the creation of a chloride ion gradient in conjunction with channel activation by a single liquid addition step after the cells have previously been treated with compounds and subsequently loaded with a voltage sensing dye.
2. Identification of Corrector Compounds
To identify correctors of F508del, a single-addition HTS assay format was developed. This HTS assay utilizes fluorescent voltage sensing dyes to measure changes in membrane potential on the FLIPR III as a measurement for increase in gating (conductance) of F508del in F508del NUT 3T3 cells. The F508del NUT 3T3 cell cultures were incubated with the corrector compounds at a range of concentrations for 18-24 hours at 37° C., and subsequently loaded with a redistribution dye. The driving force for the response is a Cl^− ion gradient in conjunction with channel activation with forskolin in a single liquid addition step using a fluorescent plate reader such as FLIPR III.
Bath Solution #1: (in mM) NaCl 160, KCl 4.5, CaCl2 2, MgCl2 1, HEPES 10, pH 7.4 with NaOH.
Chloride-free bath solution: Chloride salts in Bath Solution #1 (above) are substituted with gluconate salts.
NIH3T3 mouse fibroblasts stably expressing F508del were used for optical measurements of membrane potential. The cells were maintained at 37° C. in 5% CO2 and 90% humidity in Dulbecco's modified Eagle's medium supplemented with 2 mM glutamine, 10% fetal bovine serum, 1×NEAA, b-ME, 1×pen/strep, and 25 mM HEPES in 175 cm^2 culture flasks. For all optical assays, the cells were seeded at ˜20,000/well in 384-well Matrigel-coated plates. For the correction assays, the cells were cultured at 37° C. with and without compounds for 16-24 hours.

The mark [1] stands for this setting: NIH3T3, NIH 3T3 cells, F508del, read-out: 3T3 Max Activity (%).
[2] abbreviates: NIH3T3, read-out: 3T3 Max Activity (%).

Like-named read-outs stand apart in the source and are kept apart here.

T1 sequence (P13569 with tags, fused parts or gaps DEL508-508): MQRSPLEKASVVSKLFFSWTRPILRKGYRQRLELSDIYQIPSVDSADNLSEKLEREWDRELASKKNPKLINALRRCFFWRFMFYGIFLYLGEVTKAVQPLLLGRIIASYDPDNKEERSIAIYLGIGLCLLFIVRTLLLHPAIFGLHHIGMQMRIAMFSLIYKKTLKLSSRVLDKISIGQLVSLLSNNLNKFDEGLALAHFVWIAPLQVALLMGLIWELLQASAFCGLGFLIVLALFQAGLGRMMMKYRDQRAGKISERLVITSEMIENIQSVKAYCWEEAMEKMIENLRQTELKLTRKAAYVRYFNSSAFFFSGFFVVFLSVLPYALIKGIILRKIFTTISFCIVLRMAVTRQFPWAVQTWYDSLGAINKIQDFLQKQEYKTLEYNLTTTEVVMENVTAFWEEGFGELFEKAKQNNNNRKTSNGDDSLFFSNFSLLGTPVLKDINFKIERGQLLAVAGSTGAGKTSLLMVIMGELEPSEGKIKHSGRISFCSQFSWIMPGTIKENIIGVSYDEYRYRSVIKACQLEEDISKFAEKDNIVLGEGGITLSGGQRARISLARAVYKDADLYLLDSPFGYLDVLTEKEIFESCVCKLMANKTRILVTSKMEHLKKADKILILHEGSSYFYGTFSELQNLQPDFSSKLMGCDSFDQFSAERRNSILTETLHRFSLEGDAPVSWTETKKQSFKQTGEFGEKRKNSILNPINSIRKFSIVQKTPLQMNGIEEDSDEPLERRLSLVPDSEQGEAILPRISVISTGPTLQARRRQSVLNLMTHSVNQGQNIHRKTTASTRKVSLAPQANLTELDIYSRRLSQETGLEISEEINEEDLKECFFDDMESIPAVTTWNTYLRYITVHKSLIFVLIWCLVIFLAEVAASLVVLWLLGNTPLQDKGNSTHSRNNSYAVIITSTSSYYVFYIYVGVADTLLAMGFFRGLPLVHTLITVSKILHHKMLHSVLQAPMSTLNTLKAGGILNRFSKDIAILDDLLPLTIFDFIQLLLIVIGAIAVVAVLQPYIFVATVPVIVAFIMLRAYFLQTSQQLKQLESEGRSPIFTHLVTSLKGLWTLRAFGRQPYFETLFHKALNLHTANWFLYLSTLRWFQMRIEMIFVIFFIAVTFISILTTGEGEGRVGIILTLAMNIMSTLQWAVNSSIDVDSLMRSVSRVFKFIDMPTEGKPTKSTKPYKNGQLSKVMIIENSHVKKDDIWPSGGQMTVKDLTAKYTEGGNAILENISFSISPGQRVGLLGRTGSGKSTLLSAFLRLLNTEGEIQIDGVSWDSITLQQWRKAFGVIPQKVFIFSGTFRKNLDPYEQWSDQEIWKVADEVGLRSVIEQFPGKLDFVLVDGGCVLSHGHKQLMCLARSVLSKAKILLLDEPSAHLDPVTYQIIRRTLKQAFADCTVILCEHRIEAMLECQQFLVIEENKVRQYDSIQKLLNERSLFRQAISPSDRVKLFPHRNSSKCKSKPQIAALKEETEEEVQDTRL

For the compound `COc1ccc(-c2cn(Cc3ccccc3)nc2NS(=O)(=O)c2ccccc2)cc1` [Compound 111, N-[1-benzyl-4-(4-methoxyphenyl)pyrazol-3-yl]benzenesulfonamide], the Emax under setting [1] was less than 30%.
Turning to `O=S(=O)(Nc1nn(-c2ccccc2)cc1C1CCCCC1)c1ccccc1` [Compound 84, N-(4-cyclohexyl-1-phenyl-pyrazol-3-yl)benzenesulfonamide], the Emax under setting [1] is less than 30%.
On to `CCCNC(=O)c1sc(NS(=O)(=O)c2ccccc2)nc1-c1ccccc1` [Compound 39, 2-(benzenesulfonamido)-4-phenyl-N-propyl-thiazole-5-carboxamide], for which the Emax under setting [1] is less than 30%.
Usually EC50 stands for the concentration that produces a half-maximal response. Consider `O=S(=O)(Nc1nc(-c2ccc(Cl)cc2)c(S(=O)(=O)c2ccccc2)s1)c1ccccc1` [Compound 16, N-[5-(benzenesulfonyl)-4-(4-chlorophenyl)thiazol-2-yl]benzenesulfonamide], for which the Emax under setting [1] is 30 to 60%. The EC50 (NIH 3T3 cells, F508del) fell in the range of 1 to 3 µM.
In the case of `C=C(C)c1cc(NS(=O)(=O)c2ccccc2)nn1-c1c(C)cc(C)cc1C` [Compound 65, N-[5-isopropenyl-1-(2,4,6-trimethylphenyl)pyrazol-3-yl]benzenesulfonamide], the Emax under setting [1] was more than 60%. The concentration for a half-maximal effect (EC50) (NIH 3T3 cells, F508del) lay within 1 to 3 µM.
For `CCc1sc(NS(=O)(=O)c2ccccc2)nc1-c1ccccc1` [Compound 21, N-(5-ethyl-4-phenyl-thiazol-2-yl)benzenesulfonamide], in that order: more than 60% and 3 to 30 µM.
Consider `Cc1cc(C)c(-n2nc(NS(=O)(=O)c3ccccc3)cc2-c2ccc(Cl)cc2)c(C)c1` [Compound 56, N-[5-(4-chlorophenyl)-1-(2,4,6-trimethylphenyl)pyrazol-3-yl]benzenesulfonamide], for which the Emax under setting [1] is 30 to 60%. Further, the EC50 (NIH 3T3 cells, F508del) was less than 1 µM.
For `COc1ccc(-c2cc(NS(=O)(=O)c3ccccc3)nn2-c2c(C)cc(C)cc2C)cc1` [Compound 59, N-[5-(4-methoxyphenyl)-1-(2,4,6-trimethylphenyl)pyrazol-3-yl]benzenesulfonamide], the Emax under setting [1] was 30 to 60%. Further, where the note is “NIH 3T3 cells, F508del”, the EC50 was less than 1 µM.
Consider `O=C(NCCOCC1CC1)c1sc(NS(=O)(=O)c2ccccc2)nc1-c1ccccc1` [Compound 37, 2-(benzenesulfonamido)-N-[2-(cyclopropylmethoxy)ethyl]-4-phenyl-thiazole-5-carboxamide], for which the Emax under setting [1] is less than 30%.
Regarding `O=S(=O)(Nc1nn(Cc2ccccc2)cc1-c1ccc(Cl)cc1)c1ccccc1` [Compound 108, N-[1-benzyl-4-(4-chlorophenyl)pyrazol-3-yl]benzenesulfonamide], the Emax under setting [1] lay in the range of 30 to 60%.
Consider `O=S(=O)(Nc1nn(-c2ccccc2)cc1-c1cccs1)c1ccccc1` [Compound 75, N-[1-phenyl-4-(2-thienyl)pyrazol-3-yl]benzenesulfonamide], for which the Emax under setting [1] is less than 30%.
As for `CCCc1nc(NS(=O)(=O)c2ccccc2)sc1C` [Compound 47, N-(5-methyl-4-propyl-thiazol-2-yl)benzenesulfonamide], under setting [1], the Emax was less than 30%.
On the same count and under the same terms, in the case of `O=S(=O)(Nc1ccnn1CC1CC1)c1ccccc1` [Compound 78, N-[2-(cyclopropylmethyl)pyrazol-3-yl]benzenesulfonamide] it was less than 30%.
Consider `Cc1cc(NS(=O)(=O)c2ccccc2)nc(-c2ccc(C)c(C)c2)c1` [Compound 153], for which, under setting [1], the Emax was more than 60%. The EC50 (NIH 3T3 cells, F508del) lay in the range of 3 to 30 µM.
As for `O=S(=O)(Nc1nn(-c2cccc(Cl)c2)cc1-c1ccccc1Cl)c1ccccc1` [Compound 89, N-[4-(2-chlorophenyl)-1-(3-chlorophenyl)pyrazol-3-yl]benzenesulfonamide], under setting [1], the Emax was less than 30%.
As to `O=S(=O)(Nc1cc(Oc2ccccc2)cc(-c2ccccc2)n1)c1ccccc1` [Compound 136, N-(4-phenoxy-6-phenyl-2-pyridyl)benzenesulfonamide], under setting [1], the Emax is more than 60%. Besides, for the setting “NIH 3T3 cells, F508del”, the half-maximal effective concentration (EC50) lay within 1 to 3 µM.
`Cc1ccc(-c2nc(NS(=O)(=O)c3ccccc3)ccc2C)c(C)c1` [Compound 150]: the Emax under setting [1] is more than 60%. For the same compound, the EC50 (NIH 3T3 cells, F508del) lay within 1 to 3 µM.
On to `Cc1nc(NS(=O)(=O)c2ccccc2)sc1-c1csc(Nc2ncccn2)n1` [Compound 44, N-[4-methyl-5-[2-(pyrimidin-2-ylamino)thiazol-4-yl]thiazol-2-yl]benzenesulfonamide], for which, under setting [1], the Emax was less than 30%.
Take `O=S(=O)(Nc1cc(Cc2ccccc2)n(-c2ccccc2)n1)c1ccccc1` [Compound 71, N-(5-benzyl-1-phenyl-pyrazol-3-yl)benzenesulfonamide]: the Emax under setting [1] was less than 30%.
For `COc1ccc(Cl)cc1Nc1nc(-c2sc(NS(=O)(=O)c3ccccc3)nc2C)cs1` [Compound 27, N-[5-[2-(5-chloro-2-methoxy-anilino)thiazol-4-yl]-4-methyl-thiazol-2-yl]benzenesulfonamide], under setting [2], the Emax lay within 30 to 60%. Besides, the EC50 (NIH 3T3 cells, F508del) is 1 to 3 µM.
Regarding `COc1ccc(-c2cn(-c3cccc(Cl)c3)nc2NS(=O)(=O)c2ccccc2)cc1` [Compound 90, N-[1-(3-chlorophenyl)-4-(4-methoxyphenyl)pyrazol-3-yl]benzenesulfonamide], the Emax under setting [1] was less than 30%. Under “NIH 3T3 cells, F508del”, the EC50 is less than 1 µM.
For `Cc1cc(C)cc(-c2nc(NS(=O)(=O)c3ccccc3)cc(C)c2C)c1` [Compound 155], in that order: more than 60% and 1 to 3 µM.
Consider `CC(C)Cc1cn(-c2ccccc2)nc1NS(=O)(=O)c1ccccc1` [Compound 82, N-(4-isobutyl-1-phenyl-pyrazol-3-yl)benzenesulfonamide], for which the Emax under setting [1] is less than 30%.
For the compound `O=C(c1sc(NS(=O)(=O)c2ccccc2)nc1-c1ccccc1)N1CCCCC1` [Compound 34, N-[4-phenyl-5-(piperidine-1-carbonyl)thiazol-2-yl]benzenesulfonamide], the Emax under setting [1] is less than 30%.
Regarding `O=S(=O)(Nc1nn(-c2cccc(Cl)c2)cc1-c1ccccc1)c1ccccc1` [Compound 69, N-[1-(3-chlorophenyl)-4-phenyl-pyrazol-3-yl]benzenesulfonamide], under setting [2], the Emax was 30 to 60%. Moreover, the EC50 (NIH 3T3 cells, F508del) was 1 to 3 µM.
`O=S(=O)(NC1=NC(c2ccccc2)C=C(c2ccccc2)S1)c1ccccc1` (stereo not shown) [Compound 117, N-(4,6-diphenyl-4H-1,3-thiazin-2-yl)benzenesulfonamide]: the Emax under setting [1] lay in the range of 30 to 60%. Besides, where the note is “NIH 3T3 cells, F508del”, the EC50 is 1 to 3 µM.
On to `O=S(=O)(Nc1cc(OCc2ccccc2)nc(-c2ccccc2)n1)c1ccccc1` [Compound 132, N-(6-benzyloxy-2-phenyl-pyrimidin-4-yl)benzenesulfonamide], for which, under setting [1], the Emax was in the range of 30 to 60%. Moreover, the EC50 (NIH 3T3 cells, F508del) was in the range of 1 to 3 µM.
Consider `C/C=C/c1ccc(NS(=O)(=O)c2ccccc2)nc1Oc1ccccc1` [Compound 141, N-[6-phenoxy-5-[(E)-prop-1-enyl]-2-pyridyl]benzenesulfonamide], for which the Emax under setting [1] was more than 60%. Besides, the EC50 (NIH 3T3 cells, F508del) was in the range of 1 to 3 µM.
For `O=c1c(NS(=O)(=O)c2ccccc2)nc(-c2ccccc2)cn1-c1ccccc1` [Compound 120, N-(3-oxo-4,6-diphenyl-pyrazin-2-yl)benzenesulfonamide], the Emax under setting [1] lay in the range of 30 to 60%. Besides, the EC50 (NIH 3T3 cells, F508del) was 1 to 3 µM.
For `COC(=O)c1sc(NS(=O)(=O)c2ccccc2)nc1-c1ccc(C)cc1` [Compound 13, methyl 2-(benzenesulfonamido)-4-(p-tolyl)thiazole-5-carboxylate], the Emax under setting [1] is more than 60%. In addition, the EC50 (NIH 3T3 cells, F508del) was 3 to 30 µM.
For `C/C=C/c1ccc(NS(=O)(=O)c2ccccc2)nc1-c1ccc(C)cc1` [Compound 148] the same measures were more than 60% and 1 to 3 µM.
With `O=S(=O)(Nc1cc(-c2ccccc2)nc(Oc2ccccc2)n1)c1ccccc1` [Compound 130, N-(2-phenoxy-6-phenylpyrimidin-4-yl)benzenesulfonamide], under setting [1], the Emax was 30 to 60%. Moreover, the EC50 (NIH 3T3 cells, F508del) was 1 to 3 µM.
For the compound `COc1ccccc1Cc1cnc(NS(=O)(=O)c2ccccc2)o1` [Compound 4, N-[5-[(2-methoxyphenyl)methyl]oxazol-2-yl]benzenesulfonamide], the Emax under setting [1] is less than 30%.
Take `O=S(=O)(Nc1nc(-c2ccccc2)c(-c2ccccc2)s1)c1ccccc1` [Compound 7, N-(4,5-diphenylthiazol-2-yl)benzenesulfonamide]: under setting [2], the Emax is more than 60%. Also, under “NIH 3T3 cells, F508del”, the EC50 was in the range of 1 to 3 µM.
In the case of `CC(C)=Cc1cc(NS(=O)(=O)c2ccccc2)nn1-c1c(C)cc(C)cc1C` [Compound 51, N-[5-(2-methylprop-1-enyl)-1-(2,4,6-trimethylphenyl)pyrazol-3-yl]benzenesulfonamide], the Emax under setting [1] was more than 60%. Further, the EC50 (NIH 3T3 cells, F508del) fell in the range of 1 to 3 µM.
Take `CCCc1sc(NS(=O)(=O)c2ccccc2)nc1-c1ccc(OCC)cc1` [Compound 19, N-[4-(4-ethoxyphenyl)-5-propyl-thiazol-2-yl]benzenesulfonamide]: the Emax under setting [1] was 30 to 60%. Further, where the note is “NIH 3T3 cells, F508del”, the EC50 lay within 1 to 3 µM.
